Results published in patent publication US20110039819A1, “SUBSTITUTED PHENOXYBENZAMIDES” (priority 2008, published 2011).
Read-outs that look alike come from different tables or passages of the source.

Target: T1, MEK1 (Homo sapiens, UniProt Q02750)
T1 construct: purchased Millipore 14-420 (GST-MEK1); 14-703 (Cot1); host or cells: Cot1: insect cells (SF21)
Test: MEK1 activation kinase assay (Assay 2, HTRF; Cot1 phosphorylates GST-MEK1)
Type: biochemical
Description: MEK1 Activation Kinase Assay
The kinase Cot1 activates MEK1 by phosphorylating its activation loop. The inhibitory activity of compounds of the present invention on this activation of MEK1 was quantified employing the HTRF assay described in the following paragraphs.
As substrate for the kinase reaction the unactive C-terminally His6-tagged GST-MEK1 fusion protein (Millipore cat. no 14-420) was used.
Then the kinase reaction was started by the addition of 2 μl of a solution of Cot1 in assay buffer and the resulting mixture was incubated for a reaction time of 20 min at 22° C. The concentration of Cot1 in the assay was adjusted depending of the activity of the enzyme lot and was chosen appropriate to have the assay in the linear range, typical enzyme concentrations were in the range of about 2 ng/μl (final conc. in the 5 μl assay volume).
The resulting mixture was incubated 2 h at 22° C. to allow the binding of the phosphorylated GST-MEK1 to the anti-GST-XL665 and the Eu-cryptate labelled anti-phospho-MEK 1/2 antibody. Subsequently the amount of Ser217/Ser221-phosphorylated substrate was evaluated by measurement of the resonance energy transfer from the Eu-Cryptate-labelled anti-phospho-MEK antibody to the anti-GST-XL665.

[1] = mean values from 2 or more measurements, read-out: Assay 2 IC50 values (nanomolar) (MEK1 activation kinase assay) (values are mean values from 2 or more measurements)
[2] = representative example compounds, read-out: IC50 in MEK1 activation kinase assay

T1 sequence (Q02750 whole entry): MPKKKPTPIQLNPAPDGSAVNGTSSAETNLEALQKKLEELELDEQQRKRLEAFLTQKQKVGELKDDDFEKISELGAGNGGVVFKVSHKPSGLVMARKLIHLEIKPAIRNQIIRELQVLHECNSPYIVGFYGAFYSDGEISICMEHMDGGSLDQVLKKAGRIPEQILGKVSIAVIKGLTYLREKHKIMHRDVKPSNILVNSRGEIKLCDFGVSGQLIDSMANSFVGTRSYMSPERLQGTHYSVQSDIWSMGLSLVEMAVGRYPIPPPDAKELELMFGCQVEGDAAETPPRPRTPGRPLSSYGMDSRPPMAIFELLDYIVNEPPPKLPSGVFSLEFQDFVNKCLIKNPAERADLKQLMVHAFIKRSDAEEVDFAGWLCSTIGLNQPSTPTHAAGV

| IC50 [1] [nM] | IC50 [2] [nM] | Structure (SMILES) |
| --- | --- | --- |
| 75.4 |  | NC(=O)c1c(Nc2ccc(I)cc2F)cc(F)cc1Oc1cccc(NC(=O)c2ccon2)c1 [Example 5.84, Isoxazole-3-carboxylic acid {3-[2-carbamoyl-5-fluoro-3-(2-fluoro-4-iodo-phenylamino)-phenoxy]-phenyl}-amide] |
| 43.2 |  | CS(=O)(=O)NCc1cccc(Oc2cc(F)cc(Nc3ccc(I)cc3F)c2C(N)=O)c1 [Example 5.68, 4-Fluoro-2-(2-fluoro-4-iodo-phenylamino)-6-[3-(methane-sulfonylamino-methyl)-phenoxy]-benzamide] |
| 35.4 |  | CS(=O)(=O)N1CCC[C@@H]1COc1cc(F)cc(Nc2ccc(I)cc2F)c1C(N)=O [Example 5.32, 4-Fluoro-2-(2-fluoro-4-iodo-phenylamino)-6-((R)-1-methanesulfonyl-pyrrolidin-2-ylmethoxy)-benzamide] |
| 18.3 |  | CC(=O)NCc1cccc(Oc2cc(F)cc(Nc3ccc(I)cc3F)c2C(N)=O)c1 [Example 5.69, 2-[3-(Acetylamino-methyl)-phenoxy]-4-fluoro-6-(2-fluoro-4-iodo-phenylamino)-benzamide] |
| 86 |  | NC(=O)c1c(Nc2ccc(I)cc2F)cc(F)cc1Oc1cncc(NS(=O)(=O)c2c[nH]cn2)c1 [Example 5.93, 4-Fluoro-2-(2-fluoro-4-iodo-phenylamino)-6-[5-(1H-imidazole-4-sulfonylamino)-pyridin-3-yloxy]-benzamide] |
| 16.5 | < 1000 | CN(C)S(=O)(=O)Nc1cccc(Oc2c(F)c(F)c(F)c(Nc3ccc(I)cc3F)c2C(N)=O)c1 [Example 2.20, 2-{3-[(dimethylsulfamoyl)amino]phenoxy}-3,4,5-trifluoro-6-[(2-fluoro-4-iodophenyl)amino]-benzamide] |
| 33.2 | < 1000 | NC(=O)c1c(Nc2ccc(I)cc2F)cc(F)cc1Oc1cccc(C(=O)O)c1 [Example 10.7, 3-[2-Carbamoyl-5-fluoro-3-(2-fluoro-4-iodo-phenylamino)-phenoxy]-benzoic acid] |
| 143 |  | Cc1nocc1C(=O)Nc1cccc(Oc2cc(F)cc(Nc3ccc(I)cc3F)c2C(N)=O)c1 [Example 5.83, 3-Methyl-isoxazole-4-carboxylic acid {3-[2-carbamoyl-5-fluoro-3-(2-fluoro-4-iodo-phenylamino)-phenoxy]-phenyl}-amide] |
| 47.3 | < 1000 | CN(C)S(=O)(=O)Nc1cccc(Oc2cc(F)cc(Nc3ccc(I)cc3)c2C(N)=O)c1 [Example 2.16, 2-{3-[(dimethylsulfamoyl)amino]phenoxy}-4-fluoro-6-[(4-iodophenyl)amino] benzamide] |
| 70.3 |  | NC(=O)c1c(Nc2ccc(I)cc2F)cc(F)cc1Oc1cccc(NC(=O)c2csnn2)c1 [Example 5.76, [1,2,3]Thiadiazole-4-carboxylic acid {3-[2-carbamoyl-5-fluoro-3-(2-fluoro-4-iodo-phenylamino)-phenoxy]-phenyl}-amide] |
| 49.9 |  | Cn1cncc1C(=O)Nc1cccc(Oc2cc(F)cc(Nc3ccc(I)cc3F)c2C(N)=O)c1 [Example 5.82, 3-Methyl-3H-imidazole-4-carboxylic acid {3-[2-carbamoyl-5-fluoro-3-(2-fluoro-4-iodo-phenylamino)-phenoxy]-phenyl}-amide] |
| 127 |  | NC(=O)c1c(Nc2ccc(I)cc2F)cc(F)cc1Oc1cccc(NC(=O)c2ccoc2)c1 [Example 5.77, Furan-3-carboxylic acid {3-[2-carbamoyl-5-fluoro-3-(2-fluoro-4-iodo-phenylamino)-phenoxy]-phenyl}-amide] |
| 25.9 | < 1000 | NC(=O)c1c(Nc2ccc(I)cc2F)cc(F)cc1Oc1cccc(NS(=O)(=O)N2CCOCC2)c1 [Example 5.24, 4-Fluoro-2-(2-fluoro-4-iodo-phenylamino)-6-[3-(morpholine-4-sulfonylamino)-phenoxy]-benzamide] |
| 248 |  | C[C@@H](CO)NC(=O)c1c(Nc2ccc(I)cc2F)cc(F)cc1Oc1cccc(NS(=O)(=O)N(C)C)c1 [Example 4.21, 2-[3-[[(dimethylamino)sulfonyl]amino]phenoxy]--4-fluoro-6-[(2-fluoro-4-iodophenyl)amino]-N-((S)-2-hydroxy-1-methyl-ethyl)-benzamide] |
| 77.8 |  | NC(=O)c1c(Nc2ccc(I)cc2F)cc(F)cc1Oc1cccc(NC(=O)c2cn[nH]c2)c1 [Example 5.79, 1H-Pyrazole-4-carboxylic acid {3-[2-carbamoyl-5-fluoro-3-(2-fluoro-4-iodo-phenylamino)-phenoxy]-phenyl}-amide] |
|  | < 1000 | CC(=O)Nc1ccc(Oc2cc(F)cc(Nc3ccc(I)cc3F)c2C(N)=O)cc1 [Example 4.5, 2-(4-Acetylamino-phenoxy)-4-fluoro-6-(2-fluoro-4-iodo-phenylamino)-benzamide] |
| 89.3 |  | C[C@H](CO)NC(=O)c1c(Nc2ccc(I)cc2F)cc(F)cc1Oc1cccc(NS(=O)(=O)N(C)C)c1 [Example 4.20, 2-[3-[[(dimethylamino)sulfonyl]amino]phenoxy]--4-fluoro-6-[(2-fluoro-4-iodophenyl)amino]-N-((R)-2-hydroxy-1-methyl-ethyl)-benzamide] |
| 153 |  | CS(=O)(=O)N1CCN(CCOc2cc(F)cc(Nc3ccc(I)cc3F)c2C(N)=O)CC1 [Example 5.31, 4-Fluoro-2-(2-fluoro-4-iodo-phenylamino)-6-[2-(4-methanesulfonyl-piperazin-1-yl)-ethoxy]-benzamide] |
| 132 |  | C[C@H](O)CNC(=O)c1c(Nc2ccc(I)cc2F)cc(F)cc1Oc1cccc(NS(=O)(=O)N(C)C)c1 [Example 4.23, 2-[3-[[(dimethylamino)sulfonyl]amino]phenoxy]--4-fluoro-6-[(2-fluoro-4-iodophenyl)amino]-N-((S)-2-hydroxy-propyl)-benzamide] |
| 163 |  | C[C@@H](O)CNC(=O)c1c(Nc2ccc(I)cc2F)cc(F)cc1Oc1cccc(NS(=O)(=O)N(C)C)c1 [Example 4.22, 2-[3-[[(dimethylamino)sulfonyl]amino]phenoxy]--4-fluoro-6-[(2-fluoro-4-iodophenyl)amino]-N-((R)-2-hydroxy-propyl)-benzamide] |
| 91.6 |  | CCS(=O)(=O)N1CCC[C@@H]1COc1cc(F)cc(Nc2ccc(I)cc2F)c1C(N)=O [Example 5.33, 2-((R)-1-Ethanesulfonyl-pyrrolidin-2-ylmethoxy)-4-fluoro-6-(2-fluoro-4-iodo-phenylamino)-benzamide] |
| 14.5 |  | NC(=O)c1c(Nc2ccc(I)cc2F)cc(F)cc1Oc1cccc(NS(=O)(=O)C2CC2)c1 [Example 5.36, 2-(3- Cyclopropanesulfonylamino-phenoxy)-4-fluoro-6-(2-fluoro-4-iodo-phenylamino)-benzamide] |
| 182 | < 1000 | CN1CCC[C@H]1COc1cc(F)cc(Nc2ccc(I)cc2F)c1C(N)=O [Example 4.25, 4-Fluoro-2-(2-fluoro-4-iodo-phenylamino)-6-((S)-1-methyl-pyrrolidin-2-ylmethoxy)-benzamide] |
| 28.1 | < 1000 | CC(=O)Nc1cccc(Oc2cc(F)cc(Nc3ccc(I)cc3F)c2C(N)=O)c1 [Example 5.3, 2-(3-Acetylamino-phenoxy)-4-fluoro-6-(2-fluoro-4-iodo-phenylamino)-benzamide] |
| 19.7 |  | CC(C)(O)C(O)CCOc1cc(F)cc(Nc2ccc(I)cc2F)c1C(N)=O (stereo not drawn) [Example 6.1, 2-(3,4-Dihydroxy-4-methyl-pentyloxy)-4-fluoro-6-(2-fluoro-4-iodo-phenylamino)-benzamide] |
| 49.1 | < 1000 | CN(C)S(=O)(=O)N(C)c1cccc(Oc2cc(F)cc(Nc3ccc(I)cc3F)c2C(N)=O)c1 [Example 10.6, 6-[3-[[(dimethylamino)sulfonyl](methyl)-amino]phenoxy]-4-fluoro-2-[(2-fluoro-4-iodophenyl)amino]-benzamide] |
| 138 |  | CN(C)C(=O)N1CCN(CCOc2cc(F)cc(Nc3ccc(I)cc3F)c2C(N)=O)CC1 [Example 5.30, 4-{2-[2-Carbamoyl-5-fluoro-3-(2-fluoro-4-iodo-phenylamino)-phenoxy]-ethyl}-piperazine-1-carboxylic acid dimethylamide] |
| 258 | < 1000 | Cn1cc(Oc2cc(F)cc(Nc3ccc(I)cc3F)c2C(N)=O)cn1 [Example 4.27, 4-Fluoro-2-(2-fluoro-4-iodo-phenylamino)-6-(1-methyl-1H-pyrazol-4-yloxy)-benzamide] |
| 96.4 |  | NC(=O)c1c(Nc2ccc(I)cc2F)cc(F)cc1Oc1cccc(NC(=O)c2cc[nH]n2)c1 [Example 5.81, 1H-Pyrazole-3-carboxylic acid {3-[2-carbamoyl-5-fluoro-3-(2-fluoro-4-iodo-phenylamino)-phenoxy]-phenyl}-amide] |
| 55.5 |  | NC(=O)c1c(Nc2ccc(I)cc2F)cc(F)cc1Oc1cccc(NS(=O)(=O)NCC(F)(F)F)c1 [Example 5.94, 4-fluoro-2-[(2-fluoro-4-iodophenyl)amino]-6-(3-{[(2,2,2-trifluoroethyl)-sulfamoyl]amino}phenoxy)benzamide] |

| Structure (SMILES) | IC50 [1] [nM] | IC50 [2] [nM] |
| --- | --- | --- |
| CC(O)(CO)CCOc1cc(F)cc(Nc2ccc(I)cc2F)c1C(N)=O (stereo not drawn) [Example 6.2, 2-(3,4-Dihydroxy-3-methyl-butoxy)-4-fluoro-6-(2-fluoro-4-iodo-phenylamino)-benzamide] | 69.3 |  |
